Data reported in patent publication US20190203240A1, “METHODS FOR THE PRODUCTION OF RHAMNOSYLATED FLAVONOIDS” (Universitaet Hamburg, priority 2016, published 2019).

How the values were obtained:
Format in all cases: cell-based
NF-κB = NF-κB activity in NIH3T3-KBF-Luc cells stimulated with TNFα (luciferase); conditions: +30 ng/ml TNFα
Method: NIH3T3-KBF-Luc cells were stably transfected with the KBF-Luc plasmid (Sancho (2003) Mol Pharmacol 63:429-438), which contains three copies of NF-κB binding site (from major histocompatibility complex promoter), fused to a minimal simian virus 40 promoter driving the luciferase gene. Cells (1×10^4 for NIH3T3-KBF-Luc) were seeded the day before the assay on 96-well plate. Then the cells were treated with the test substances for 15 min and then stimulated with 30 ng/ml of TNFα. After 6 h, the cells were washed twice with PBS and lysed in 50 μl lysis buffer containing 25 mM Tris-phosphate (pH 7.8), 8 mM MgCl2, 1 mM DTT, 1% Triton X-100, and 7% glycerol during 15 min at RT in a horizontal shaker. Luciferase activity was measured using a GloMax 96 microplate luminometer (Promega) following the instructions of the luciferase assay kit (Promega, Madison, Wis., USA). […] The experiments for each concentration of the test items were done in triplicate wells.

STAT3 = STAT3 activity in HeLa-STAT3-luc cells stimulated with IFN-γ (luciferase); conditions: +IFNγ 25 U/ml
Method: HeLa-STAT3-luc cells were stably transfected with the plasmid 4×M67 pTATA TK-Luc. Cells (20×10^3 cells/ml) were seeded 96-well plate the day before the assay. Then the cells were treated with the test substances for […] and then stimulated with IFN-γ 25 IU/ml. After 6 h, the cells were washed twice with PBS and lysed in […] lysis buffer containing 25 mM Tris-phosphate (pH 7.8), 8 mM MgCl2, 1 mM DTT, 1% Triton X-100, and 7% glycerol during […] at RT in a horizontal shaker. Luciferase activity was measured using GloMax 96 microplate luminometer (Promega) following the instructions of the luciferase assay kit (Promega, Madison, Wis., USA). […] The experiments for each concentration of the test items were done in triplicate wells.

HaCaT cells = experiment: Glucose uptake (2-NBDG) in HaCaT keratinocytes; conditions: +2NBDG 50 μM, 24 h
Method: HaCaT cells (5×10^4) were seeded in 96-well black plates and incubated for 24 h. Then, medium was removed and the cells cultivated in OptiMEM, labeled with 50 μM 2-NBDG (2-[N-(7-nitrobenz-2-oxa-1,3-diazol-4-yl) amino]-2-deoxy-D-glucose and treated with the test substances or the positive control, Rosiglitazone, for 24 h. Medium was removed and the wells were carefully washed with PBS and incubated in PBS (100 μl/well). Finally the fluorescence was measured using the Incucyte FLR software, the data were analyzed by the total green object integrated intensity (GCU×μm2×Well) of the imaging system IncuCyte HD (Essen BioScience). The fluorescence of Rosiglitazone is taken as 100% of glucose uptake, and the glucose uptake was calculated as (% Glucose uptake)=100(T−B)/(R−B), where T (treated) is the fluorescence of test substance-treated cells, B (Basal) is the fluorescence of 2-NBDG cells and […] is the fluorescence of cells treated with Rosiglitazone.

| Structure (SMILES) | % Activation (NF-κB; TNFα = 100%) (NF-κB; 10 μM) [%] | RLU 1 (NF-κB; 10 μM) [RLU] | RLU 2 (NF-κB; 10 μM) [RLU] | RLU 3 (NF-κB; 10 μM) [RLU] | RLU MEAN (NF-κB; 10 μM) [RLU] | RLU specific (NF-κB; 10 μM) [RLU] | % Activation (NF-κB; TNFα = 100%) (NF-κB; 25 μM) [%] | RLU 1 (NF-κB; 25 μM) [RLU] | RLU 2 (NF-κB; 25 μM) [RLU] | RLU 3 (NF-κB; 25 μM) [RLU] | RLU MEAN (NF-κB; 25 μM) [RLU] | RLU specific (NF-κB; 25 μM) [RLU] | % Activation (STAT3; IFNγ = 100%) (STAT3; 25 μM) [%] | RLU 1 (STAT3; 25 μM) [RLU] | RLU 2 (STAT3; 25 μM) [RLU] | RLU 3 (STAT3; 25 μM) [RLU] | RLU MEAN (STAT3; 25 μM) [RLU] | RLU specific (STAT3; 25 μM) [RLU] | RLU 1 (STAT3; 50 μM) [RLU] | RLU 2 (STAT3; 50 μM) [RLU] | other results |
| --- | --- | --- | --- | --- | --- | --- | --- | --- | --- | --- | --- | --- | --- | --- | --- | --- | --- | --- | --- | --- | --- |
| COc1ccc(-c2coc3cc(O[C@@H]4O[C@@H](C)[C@H](O)[C@@H](O)[C@H]4O)cc(O[C@@H]4O[C@@H](C)[C@H](O)[C@@H](O)[C@H]4O)c3c2=O)cc1 [BR1, Biochanin A-5,7-di-O-α-L-rhamnoside] | 170.3 | 259120 | 247590 | 229500 | 245403 | 222040 | 141.4 | 211660 | 208010 | 203720 | 207797 | 184433 | 110.41 | 8162 | 12819 | 11157 | 10713 | 8878 | 12336 | 11620 | % Activation (STAT3; IFNγ = 100%) (STAT3; 50 μM): 126.67%; RLU 3 (STAT3; 50 μM): 12104 RLU; RLU MEAN (STAT3; 50 μM): 12020 RLU; RLU specific (STAT3; 50 μM): 10185 RLU; % Glucose uptake (Rosiglitazone = 100%) (HaCaT cells; 25 μM): 44.0%; Mean (fluorescence) (HaCaT cells; 25 μM): 597246; Measure 1 (fluorescence) (HaCaT cells; 25 μM): 730362; Measure 2 (fluorescence) (HaCaT cells; 25 μM): 661244; Measure 3 (fluorescence) (HaCaT cells; 25 μM): 400131; RFU specific (HaCaT cells; 25 μM): 564160 RFU; % Glucose uptake (Rosiglitazone = 100%) (HaCaT cells; 50 μM): 56.4%; Mean (fluorescence) (HaCaT cells; 50 μM): 756509; Measure 1 (fluorescence) (HaCaT cells; 50 μM): 899548; Measure 2 (fluorescence) (HaCaT cells; 50 μM): 626443; Measure 3 (fluorescence) (HaCaT cells; 50 μM): 743535; RFU specific (HaCaT cells; 50 μM): 723423 RFU |
| CC1O[C@@H](Oc2cc(O[C@@H]3OC(C)[C@H](O)C(O)C3O)c3c(=O)cc(-c4ccccc4)oc3c2)C(O)C(O)[C@H]1O (stereo partly drawn) [CR1, Chrysin-di-5,7-O-α-L-rhamnoside] | 109.9 | 157870 | 169000 | 173010 | 166627 | 143263 | 120.8 | 175140 | 183630 | 183960 | 180910 | 157547 |  |  |  |  |  |  |  |  | % Glucose uptake (Rosiglitazone = 100%) (HaCaT cells; 25 μM): 48.3%; Mean (fluorescence) (HaCaT cells; 25 μM): 426161; Measure 1 (fluorescence) (HaCaT cells; 25 μM): 291406; Measure 2 (fluorescence) (HaCaT cells; 25 μM): 358114; Measure 3 (fluorescence) (HaCaT cells; 25 μM): 628963; RFU specific (HaCaT cells; 25 μM): 419847 RFU; % Glucose uptake (Rosiglitazone = 100%) (HaCaT cells; 50 μM): 52.6%; Mean (fluorescence) (HaCaT cells; 50 μM): 463245; Measure 1 (fluorescence) (HaCaT cells; 50 μM): 619992; Measure 2 (fluorescence) (HaCaT cells; 50 μM): 595330; Measure 3 (fluorescence) (HaCaT cells; 50 μM): 174412; RFU specific (HaCaT cells; 50 μM): 456931 RFU |
| CC1O[C@@H](Oc2cc(O)cc3oc(-c4ccccc4)cc(=O)c23)C(O)C(O)[C@H]1O (stereo partly drawn) [CR2, Chrysin-5-O-α-L-rhamnoside] | 101.7 | 156600 | 160140 | 151070 | 155937 | 132573 |  | 170390 | 179220 | 163490 | 171033 | 147670 |  |  |  |  |  |  |  |  | activity at 25 µM (NF-κB; 6 h, 25 μM, read-out: % Activation (NF-κB; TNFα = 100%)): 113%; % Glucose uptake (Rosiglitazone = 100%) (HaCaT cells; 25 μM): 47.2%; Mean (fluorescence) (HaCaT cells; 25 μM): 416681; Measure 1 (fluorescence) (HaCaT cells; 25 μM): 427937; Measure 2 (fluorescence) (HaCaT cells; 25 μM): 431593; Measure 3 (fluorescence) (HaCaT cells; 25 μM): 390512; RFU specific (HaCaT cells; 25 μM): 410367 RFU; % Glucose uptake (Rosiglitazone = 100%) (HaCaT cells; 50 μM): 106.5%; Mean (fluorescence) (HaCaT cells; 50 μM): 931673; Measure 1 (fluorescence) (HaCaT cells; 50 μM): 771478; Measure 2 (fluorescence) (HaCaT cells; 50 μM): 1100390; Measure 3 (fluorescence) (HaCaT cells; 50 μM): 923151; RFU specific (HaCaT cells; 50 μM): 925359 RFU |
| O=c1cc(-c2ccccc2)oc2cc(O)cc(O)c12 [Chrysin] | 313.0 | 301630 | 274240 | 303950 | 293273 | 256010 | 293.5 | 273410 | 272580 | 285980 | 277323 | 240060 | 164.78 | 28031 | 22367 | 17504 | 22634 | 20627 | 27912 | 3531 | % Activation (STAT3; IFNγ = 100%) (STAT3; 50 μM): 111.11%; RLU 3 (STAT3; 50 μM): 16304 RLU; RLU MEAN (STAT3; 50 μM): 15916 RLU; RLU specific (STAT3; 50 μM): 13908 RLU |
| COc1ccc(-c2cc(=O)c3c(O)cc(O)cc3o2)cc1O [Diosmetin] | 294.7 | 398660 | 411390 | 412940 | 407663 | 384300 | 327.9 | 448530 | 452660 | 451610 | 450933 | 427570 | 111.00 | 16337 | 14303 | 17066 | 15902 | 13895 | 9189 | 7751 | RLU 3 (STAT3; 50 μM): 7857 RLU; RLU MEAN (STAT3; 50 μM): 8266 RLU; RLU specific (STAT3; 50 μM): 6258 RLU; activity at 50 µM (STAT3; 6 h, 50 μM, read-out: % Activation (STAT3; IFNγ = 100%)): 50% |
| COc1cc(C2Oc3cc([C@H]4Oc5cc(O)cc(O)c5C(=O)[C@@H]4O)ccc3OC2CO)ccc1O (stereo partly drawn) [Silibinin] |  |  |  |  |  |  |  |  |  |  |  |  | 121.32 | 12389 | 11170 | 11210 | 11590 | 9755 | 12157 | 11885 | % Activation (STAT3; IFNγ = 100%) (STAT3; 50 μM): 120.55%; RLU 3 (STAT3; 50 μM): 10540 RLU; RLU MEAN (STAT3; 50 μM): 11527 RLU; RLU specific (STAT3; 50 μM): 9692 RLU |
